From patent US20260098030A1, “NEGATIVE ALLOSTERIC MODULATORS OF METABOTROPIC GLUTAMATE RECEPTOR 2” (Vanderbilt University, priority 2022, published 2026)

Tests used:
Helpless (H) mice = details: cited from earlier work; for antidepressant effect in helpless mice: LY341495 acute administration, fluoxetine chronic (21 days) treatment; for activity in the tail suspension test: Helpless (H) mice
rat mGlu2 = biological target: T1, rat mGlu2 (Rattus norvegicus, UniProt P31421); test: mGlu GIRK cell-based thallium flux assay, rat mGlu2; details: HEK-293 cells co-expressing rat mGlu2 and GIRK, EC80 glutamate
T1 construct: expressed in transfected cells; host or cells: HEK-293 cells stably co-expressing GIRK channels
How it was run: (§1)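 HEK-293 cells stably co-expressing GIRK with human mGlu3, human mGlu2 or rat mGlu2 were loaded 1 h at 25° C with Thallos dye, then given compound (30 μM to 1.5 nM final, 10-point) for 2 min 20 s before EC80 glutamate plus thallium. Baseline-corrected fluorescence slope, normalized to ECmax glutamate, fitted to 4-parameter logistic for IC50.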

Rat mGlu3 = Rat mGlu3 (UniProt P31422); test: mGlu GIRK cell-based thallium flux assay, mGlu3; details: HEK-293 cells co-expressing mGlu3 and GIRK, EC80 glutamate
human mGlu2 = biological target: T2, human mGlu2 (Homo sapiens, UniProt Q14416); test: mGlu GIRK cell-based thallium flux assay, human mGlu2; details: HEK-293 cells co-expressing human mGlu2 and GIRK, EC80 glutamate
T2 construct: expressed in transfected cells; host or cells: HEK-293 cells stably co-expressing GIRK channels
How it was run: as §1

rat = details: normal animals; cited from earlier work
mouse = details: normal animals; cited from earlier work
[1] = test system: central mGlu2 and mGlu3 receptors; details: in vivo; cited from earlier work
C57B16/J mice = details: cited from earlier work
mice = details: cited from earlier work
mGlu2 = details: cited from earlier work
[2] = test system: Dutch APP transgenic mice; details: cited from earlier work
[3] = treatment for 7 days; cited from earlier work
[4] = test system: olfactory bulbectomized rats; details: repeated administration for 14 days; cited from earlier work
[5] = test system: social isolation-reared mice; details: cited from earlier work
[6] = in vivo; cited from earlier work

T1 sequence (P31421 19-872): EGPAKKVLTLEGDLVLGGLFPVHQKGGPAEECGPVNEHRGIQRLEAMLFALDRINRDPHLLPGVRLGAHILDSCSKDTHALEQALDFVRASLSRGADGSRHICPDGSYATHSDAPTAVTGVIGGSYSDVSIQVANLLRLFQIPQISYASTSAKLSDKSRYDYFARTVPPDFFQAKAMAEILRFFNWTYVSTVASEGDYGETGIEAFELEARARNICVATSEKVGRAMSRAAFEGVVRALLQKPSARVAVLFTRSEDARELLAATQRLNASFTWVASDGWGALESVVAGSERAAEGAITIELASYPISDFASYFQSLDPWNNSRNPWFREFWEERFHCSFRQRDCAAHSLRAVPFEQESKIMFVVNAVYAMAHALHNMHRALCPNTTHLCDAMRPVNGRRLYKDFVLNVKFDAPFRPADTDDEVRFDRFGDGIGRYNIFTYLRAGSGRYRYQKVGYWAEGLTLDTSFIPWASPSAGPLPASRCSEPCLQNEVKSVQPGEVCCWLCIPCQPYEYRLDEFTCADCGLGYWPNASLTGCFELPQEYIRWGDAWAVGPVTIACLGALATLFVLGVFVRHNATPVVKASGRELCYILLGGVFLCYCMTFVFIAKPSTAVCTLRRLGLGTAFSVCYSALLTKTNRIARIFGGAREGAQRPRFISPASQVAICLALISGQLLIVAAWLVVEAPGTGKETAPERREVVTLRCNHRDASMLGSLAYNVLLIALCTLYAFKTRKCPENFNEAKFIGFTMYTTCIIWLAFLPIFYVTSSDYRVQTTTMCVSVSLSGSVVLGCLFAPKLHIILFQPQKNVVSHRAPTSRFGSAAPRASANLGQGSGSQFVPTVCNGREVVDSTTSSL
T2 sequence (Q14416 19-872): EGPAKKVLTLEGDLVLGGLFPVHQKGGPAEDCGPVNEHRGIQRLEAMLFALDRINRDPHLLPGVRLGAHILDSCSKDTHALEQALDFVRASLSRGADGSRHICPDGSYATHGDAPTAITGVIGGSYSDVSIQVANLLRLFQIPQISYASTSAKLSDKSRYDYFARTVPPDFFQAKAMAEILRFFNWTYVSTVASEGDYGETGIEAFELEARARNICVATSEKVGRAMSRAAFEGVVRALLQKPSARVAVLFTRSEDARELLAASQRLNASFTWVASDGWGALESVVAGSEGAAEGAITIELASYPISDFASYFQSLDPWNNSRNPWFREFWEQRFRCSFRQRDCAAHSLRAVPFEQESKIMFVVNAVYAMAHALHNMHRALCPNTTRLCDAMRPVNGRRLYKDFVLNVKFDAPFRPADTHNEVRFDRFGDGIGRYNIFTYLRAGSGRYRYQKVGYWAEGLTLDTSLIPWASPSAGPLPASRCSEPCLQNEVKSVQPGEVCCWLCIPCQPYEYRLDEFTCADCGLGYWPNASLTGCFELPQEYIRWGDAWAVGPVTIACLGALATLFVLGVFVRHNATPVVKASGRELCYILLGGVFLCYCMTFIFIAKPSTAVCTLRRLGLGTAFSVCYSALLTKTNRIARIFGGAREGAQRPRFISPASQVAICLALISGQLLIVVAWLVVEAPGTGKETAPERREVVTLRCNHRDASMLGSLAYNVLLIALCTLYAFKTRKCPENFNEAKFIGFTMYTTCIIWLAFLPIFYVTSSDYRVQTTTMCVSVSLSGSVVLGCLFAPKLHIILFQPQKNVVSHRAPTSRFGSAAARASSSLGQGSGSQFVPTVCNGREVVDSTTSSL

Structure (SMILES)	IC50 (rat mGlu2) [nM]	IC50 (Rat mGlu3) [nM]	also measured
CNCCC(Oc1ccc(C(F)(F)F)cc1)c1ccccc1 (stereo not drawn) [fluoxetine]	–	–	antidepressant effect in helpless mice (Helpless (H) mice): full antidepressant effect
O=C1NCc2cc(-c3ccn(C4CC4)n3)c(-c3ccc(F)cc3F)cc21 [Compound 108, 5-(1-cyclopropyl-1H-pyrazol-3-yl)-6-(2,4-difluorophenyl)isoindolin-1-one]	347	4790	–
Cc1ncc(-c2cc3c(cc2-c2ccc(F)cc2)C(=O)NC3)s1 [Compound 5, 6-(4-fluorophenyl)-5-(2-methylthiazol-5-yl)isoindolin-1-one]	839	5820	–
O=C1NCc2cc(-c3cnco3)c(-c3ccc(F)cc3)cc21 [Compound 2, 6-(4-fluorophenyl)-5-(oxazol-5-yl)isoindolin-1-one]	> 10000	–	IC50 (human mGlu2): 5840 nM
Cn1cc2cc(-c3cc4c(cc3-c3ccc(F)cc3)C(=O)NC4)ccc2n1 [Compound 7, 6-(4-fluorophenyl)-5-(2-methyl-2H-indazol-5-yl)isoindolin-1-one]	> 10000	–	IC50 (human mGlu2): 1560 nM
COc1cncc(-c2cc3c(cc2-c2ccc(F)cc2F)C(=O)NC3)c1 [Compound 101, 6-(2,4-difluorophenyl)-5-(5-methoxypyridin-3-yl)isoindolin-1-one]	534	> 10000	–
O=C1NCc2cc(CN3CC(O)(C(F)(F)F)C3)c(-c3ccc(F)cc3F)cc21 [Compound A12, 6-(2,4-difluorophenyl)-5-((3-hydroxy-3-(trifluoromethyl)azetidin-1-yl)methyl)isoindolin-1-one]	> 10000	–	IC50 (human mGlu2): 528 nM
O=C1NCc2cc(-c3cccnc3C3CC3)c(-c3ccc(F)cc3F)cc21 [Compound 74, 5-(2-cyclopropylpyridin-3-yl)-6-(2,4-difluorophenyl)isoindolin-1-one]	–	> 10000	–
N[C@](CC1c2ccccc2Oc2ccccc21)(C(=O)O)[C@H]1C[C@@H]1C(=O)O [LY341495]	–	–	antidepressant-like effects in rat forced swim test (rat): Antidepressant-like effects; antidepressant-like effects in mouse tail-suspension test (mouse): Antidepressant-like effects; hypolocomotor effect of mGlu2/3 agonist (LY379268) [1]: achieved the same result; immobility time in the FST (C57B16/J mice): dose-dependently reduced immobility time; activity in the tail suspension test (Helpless (H) mice): active; antidepressant effect in helpless mice (Helpless (H) mice): potent antidepressant effect; marble-burying behavior (mice): significantly reduce marble-burying behavior; Aβ-induced neurodegeneration (mGlu2): this effect was prevented
O=C1NCc2cc(-c3ccc4ocnc4c3)c(-c3ccc(F)cc3F)cc21 [Compound 24, 5-(benzo[d]oxazol-5-yl)-6-(2,4-difluorophenyl)isoindolin-1-one]	953	> 10000	–
O=C1NCc2cc(-c3ccncc3)c(-c3ccc(F)cc3)cc21 [Compound 4, 6-(4-fluorophenyl)-5-(pyridin-4-yl)isoindolin-1-one]	> 10000	–	IC50 (human mGlu2): > 10000 nM
N#Cc1cccc(-c2cc3c(cc2-c2ccc(F)cc2F)C(=O)NC3)c1F [Compound 94, 3-(6-(2,4-difluorophenyl)-1-oxoisoindolin-5-yl)-2-fluorobenzonitrile]	477	> 10000	–
CCS(=O)(=O)N(Cc1cccnc1)c1cccc(-c2ccc(C#N)cc2)c1 [LY566332]	–	–	Aβ-induced neurodegeneration (mGlu2): amplified Aβ-induced neurodegeneration
Cc1ccc(-c2cc3c(cc2-c2ccc(F)cc2F)C(=O)NC3)cn1 [Compound 69, 6-(2,4-difluorophenyl)-5-(6-methylpyridin-3-yl)isoindolin-1-one]	659	> 10000	–
Cc1cc(C#N)cc(-c2cc3c(cc2-c2ccc(F)cc2F)C(=O)NC3)c1 [Compound 91, 3-(6-(2,4-difluorophenyl)-1-oxoisoindolin-5-yl)-5-methylbenzonitrile]	697	> 10000	–
Cc1c(-c2cc3c(cc2-c2ccc(F)cc2)C(=O)NC3)ccc2[nH]ncc12 [Compound 9, 6-(4-fluorophenyl)-5-(4-methyl-1H-indazol-5-yl)isoindolin-1-one]	1280	1980	–
Cc1cc(-c2cc3c(cc2-c2ccc(F)cc2F)C(=O)NC3)c(C#N)n1C [Compound 98, 3-(6-(2,4-difluorophenyl)-1-oxoisoindolin-5-yl)-1,5-dimethyl-1H-pyrrole-2-carbonitrile]	136	2620	–
Cc1ccc(-c2cc3c(cc2-c2ccc(F)cc2)C(=O)NC3)nc1 [Compound 52, 6-(4-fluorophenyl)-5-(5-methylpyridin-2-yl)isoindolin-1-one]	953	> 10000	–
Cc1ccc(C#N)cc1-c1cc2c(cc1-c1ccc(F)cc1F)C(=O)NC2 [Compound 96, 3-(6-(2,4-difluorophenyl)-1-oxoisoindolin-5-yl)-4-methylbenzonitrile]	585	> 10000	–
Cn1cc(-c2cc3c(cc2-c2ccc(F)cc2)C(=O)NC3)cn1 [Compound 1, 6-(4-fluorophenyl)-5-(1-methyl-1H-pyrazol-4-yl)isoindolin-1-one]	> 10000	–	IC50 (human mGlu2): > 10000 nM
CCCCCCCOC(=O)[C@@]1(F)[C@@H]2C[C@@H](OCc3ccc(Cl)c(Cl)c3)[C@@](N)(C(=O)O)[C@@H]21 [BCI-838]	–	–	duration of inhibition of group II mGlu receptors by brain concentration of active metabolite BCI-632 ([2]; once-daily oral dosing): 22 h; learning and memory impairment ([2]; three months of treatment, Dutch APP transgene): reversed Dutch APP transgene-associated learning and memory impairment; anxiolytic effects ([2]; three months of treatment): provided anxiolytic effects; levels of monomeric and oAβ peptides in the hippocampus and cortex ([2]; three months of treatment, two AD mouse models): decreased the levels of monomeric and oAβ peptides; hippocampal progenitor cell proliferation ([2]; wild-type and Alzheimer's diseased mice, 3 months): stimulated hippocampal progenitor cell proliferation
Cc1cc(-c2cccc(C3=Nc4cc(C)c(C(F)(F)F)cc4NC(=O)C3)c2)cc(C)n1 [RO4491533]	–	–	hypolocomotor effect of mGlu2/3 agonist (LY379268) [1]: reversed the hypolocomotor effect; immobility time in the FST (C57B16/J mice): dose-dependently reduced immobility time; activity in the tail suspension test (Helpless (H) mice): active
N[C@]1(C(=O)O)[C@H]2[C@@H](C[C@H]1OCc1ccc(Cl)c(Cl)c1)[C@]2(F)C(=O)O [MGS0039]	–	–	antidepressant-like effects in rat forced swim test (rat): Antidepressant-like effects; antidepressant-like effects in mouse tail-suspension test (mouse): Antidepressant-like effects; number of escape failures, learned helplessness test [3]: significantly reduced the number of escape failures; hyperactivity in the open field test [4]: attenuated the hyperactivity; learning deficit in the passive avoidance test [4]: attenuated the learning deficit; immobility in the FST [5]: reversed the increased immobility; marble-burying behavior (mice): reduced marble-burying behavior in a significant and dose dependent manner; spontaneous locomotor activity (mice): no significant change; freezing behavior, CFS model [6]: significantly decreased freezing behavior
O=C1NCc2cc(-c3cnc4[nH]ccc4c3)c(-c3ccc(F)cc3F)cc21 [Compound 87, 6-(2,4-difluorophenyl)-5-(1H-pyrrolo[2,3-b]pyridin-5-yl)isoindolin-1-one]	618	> 10000	–
Cc1c(-c2cc3c(cc2-c2ccc(F)cc2F)C(=O)NC3)cc(C#N)n1C [Compound 90, 4-(6-(2,4-difluorophenyl)-1-oxoisoindolin-5-yl)-1,5-dimethyl-1H-pyrrole-2-carbonitrile]	225	–	IC50 (human mGlu2): 185 nM
O=C1NCc2cc(C3CCOCC3)c(-c3ccc(F)cc3)cc21 [Compound 64, 6-(4-fluorophenyl)-5-(tetrahydro-2H-pyran-4-yl)isoindolin-1-one]	762	> 10000	–
